Data from the NIST ThermoML archive (doi:10.1016/j.jct.2011.10.001).
± gives the expanded uncertainty stated by the source.

Tests used:
[1] = for molar entropy: 101.33 kPa, Vacuum adiabatic calorimetry; for vapor or sublimation pressure: Ebulliometric method (Recirculating still)
[2] = Molar enthalpy of transition or fusion; conditions: Crystal; Adiabatic calorimetry

With CCCC(=O)OC [methyl butanoate] the molar entropy ([1]; 5 K, Crystal) was 0.119 ± 0.017 J/K/mol, the molar entropy ([1]; 10 K, Crystal) was 0.949 ± 0.027 J/K/mol and the molar entropy ([1]; 15 K, Crystal) was 2.987 ± 0.046 J/K/mol. The molar entropy ([1]; 20 K, Crystal) was 6.126 ± 0.068 J/K/mol, the molar entropy ([1]; 25 K, Crystal) was 10.07 ± 0.085 J/K/mol and the molar entropy ([1]; 30 K, Crystal) was 14.55 ± 0.1 J/K/mol. It also gave a molar entropy ([1]; 35 K, Crystal) of 19.38 ± 0.12 J/K/mol, a molar entropy ([1]; 40 K, Crystal) of 24.39 ± 0.14 J/K/mol and a molar entropy ([1]; 45 K, Crystal) of 29.43 ± 0.15 J/K/mol. For the same molecule, the molar entropy ([1]; 50 K, Crystal) was 34.51 ± 0.17 J/K/mol, the molar entropy ([1]; 55 K, Crystal) was 39.59 ± 0.18 J/K/mol and the molar entropy ([1]; 60 K, Crystal) was 44.66 ± 0.2 J/K/mol. For the same molecule, the molar entropy ([1]; 65 K, Crystal) was 49.71 ± 0.21 J/K/mol, the molar entropy ([1]; 70 K, Crystal) was 54.67 ± 0.23 J/K/mol and the molar entropy ([1]; 75 K, Crystal) was 59.5 ± 0.24 J/K/mol. The molar entropy ([1]; 80 K, Crystal) was 64.19 ± 0.25 J/K/mol, the molar entropy ([1]; 85 K, Crystal) was 68.76 ± 0.27 J/K/mol and the molar entropy ([1]; 90 K, Crystal) was 73.24 ± 0.41 J/K/mol. It also gave a molar entropy ([1]; 95 K, Crystal) of 77.63 ± 0.42 J/K/mol, a molar entropy ([1]; 100 K, Crystal) of 81.94 ± 0.42 J/K/mol and a molar entropy ([1]; 110 K, Crystal) of 90.3 ± 0.44 J/K/mol. It also gave a molar entropy ([1]; 120 K, Crystal) of 98.36 ± 0.45 J/K/mol, a molar entropy ([1]; 130 K, Crystal) of 106.18 ± 0.46 J/K/mol and a molar entropy ([1]; 140 K, Crystal) of 113.66 ± 0.47 J/K/mol. For the same molecule, the molar entropy ([1]; 150 K, Crystal) was 120.98 ± 0.48 J/K/mol, the molar entropy ([1]; 160 K, Crystal) was 128.13 ± 0.49 J/K/mol and the molar entropy ([1]; 170 K, Crystal) was 135.11 ± 0.5 J/K/mol. For the same molecule, the molar entropy ([1]; 180 K, Crystal) was 141.93 ± 0.51 J/K/mol, the molar entropy ([1]; 190 K, Crystal) was 148.58 ± 0.52 J/K/mol and the molar entropy ([1]; 190.09 K, Crystal) was 148.66 ± 0.52 J/K/mol. For the same molecule, the molar entropy ([1]; 190.09 K, Liquid) was 208.44 ± 0.61 J/K/mol, the molar entropy ([1]; 200 K, Liquid) was 217.84 ± 0.63 J/K/mol and the molar entropy ([1]; 210 K, Liquid) was 226.9 ± 0.64 J/K/mol. For the same molecule, the molar entropy ([1]; 220 K, Liquid) was 235.55 ± 0.65 J/K/mol, the molar entropy ([1]; 230 K, Liquid) was 243.86 ± 0.67 J/K/mol and the molar entropy ([1]; 240 K, Liquid) was 251.84 ± 0.68 J/K/mol. It also gave a molar entropy ([1]; 250 K, Liquid) of 259.58 ± 0.69 J/K/mol, a molar entropy ([1]; 260 K, Liquid) of 267.06 ± 0.7 J/K/mol and a molar entropy ([1]; 270 K, Liquid) of 274.38 ± 0.71 J/K/mol. The molar entropy ([1]; 280 K, Liquid) was 281.36 ± 0.72 J/K/mol, the molar entropy ([1]; 290 K, Liquid) was 288.26 ± 0.73 J/K/mol and the molar entropy ([1]; 298.15 K, Liquid) was 293.75 ± 0.74 J/K/mol. For the same molecule, the molar entropy ([1]; 300 K, Liquid) was 295 ± 0.74 J/K/mol, the molar entropy ([1]; 310 K, Liquid) was 301.48 ± 0.75 J/K/mol and the “vapor or sublimation pressure” value ([1]; 316.24 K, Liquid) was 10.8 ± 0.054 kPa. The molar entropy ([1]; 320 K, Liquid) was 307.88 ± 0.76 J/K/mol, the “vapor or sublimation pressure” value ([1]; 321.02 K, Liquid) was 13.43 ± 0.054 kPa and the “vapor or sublimation pressure” value ([1]; 326.17 K, Liquid) was 16.83 ± 0.055 kPa. The molar entropy ([1]; 330 K, Liquid) was 314.12 ± 0.77 J/K/mol, the “vapor or sublimation pressure” value ([1]; 331.33 K, Liquid) was 20.88 ± 0.056 kPa and the “vapor or sublimation pressure” value ([1]; 335.84 K, Liquid) was 25.07 ± 0.057 kPa. For the same molecule, the molar entropy ([1]; 340 K, Liquid) was 320.27 ± 0.78 J/K/mol, the “vapor or sublimation pressure” value ([1]; 341.17 K, Liquid) was 30.91 ± 0.059 kPa and the “vapor or sublimation pressure” value ([1]; 346.14 K, Liquid) was 37.26 ± 0.061 kPa. For the same molecule, the molar entropy ([1]; 350 K, Liquid) was 326.34 ± 0.79 J/K/mol, the “vapor or sublimation pressure” value ([1]; 351.81 K, Liquid) was 45.83 ± 0.064 kPa and the “vapor or sublimation pressure” value ([1]; 357.57 K, Liquid) was 56.12 ± 0.069 kPa. For the same molecule, the molar entropy ([1]; 360 K, Liquid) was 332.33 ± 0.8 J/K/mol, the “vapor or sublimation pressure” value ([1]; 363.05 K, Liquid) was 67.49 ± 0.074 kPa and the “vapor or sublimation pressure” value ([1]; 368.86 K, Liquid) was 81.57 ± 0.08 kPa. For the same molecule, the molar entropy ([1]; 370 K, Liquid) was 338.15 ± 0.81 J/K/mol, the “vapor or sublimation pressure” value ([1]; 373.81 K, Liquid) was 95.31 ± 0.086 kPa and the “vapor or sublimation pressure” value ([1]; 374.54 K, Liquid) was 97.44 ± 0.087 kPa. For the same molecule, the “vapor or sublimation pressure” value ([1]; 375.25 K, Liquid) was 99.6 ± 0.089 kPa, the Triple point temperature ([1]; Crystal, fractional melting) was 190.1 ± 0.1 K and the “Molar enthalpy of transition or fusion” value [2] was 2.72 ± 0.0287 kcal/mol.
